# Target: T1, HDAC6 enzyme (Homo sapiens, UniProt Q9UBN7)
# T1 construct: transducing full length HDAC6 gene into Sf-9 insect cells; GST; purchased SignalChem; host or cells: Sf-9 insect cells
# T1 sequence (Q9UBN7 1-1215): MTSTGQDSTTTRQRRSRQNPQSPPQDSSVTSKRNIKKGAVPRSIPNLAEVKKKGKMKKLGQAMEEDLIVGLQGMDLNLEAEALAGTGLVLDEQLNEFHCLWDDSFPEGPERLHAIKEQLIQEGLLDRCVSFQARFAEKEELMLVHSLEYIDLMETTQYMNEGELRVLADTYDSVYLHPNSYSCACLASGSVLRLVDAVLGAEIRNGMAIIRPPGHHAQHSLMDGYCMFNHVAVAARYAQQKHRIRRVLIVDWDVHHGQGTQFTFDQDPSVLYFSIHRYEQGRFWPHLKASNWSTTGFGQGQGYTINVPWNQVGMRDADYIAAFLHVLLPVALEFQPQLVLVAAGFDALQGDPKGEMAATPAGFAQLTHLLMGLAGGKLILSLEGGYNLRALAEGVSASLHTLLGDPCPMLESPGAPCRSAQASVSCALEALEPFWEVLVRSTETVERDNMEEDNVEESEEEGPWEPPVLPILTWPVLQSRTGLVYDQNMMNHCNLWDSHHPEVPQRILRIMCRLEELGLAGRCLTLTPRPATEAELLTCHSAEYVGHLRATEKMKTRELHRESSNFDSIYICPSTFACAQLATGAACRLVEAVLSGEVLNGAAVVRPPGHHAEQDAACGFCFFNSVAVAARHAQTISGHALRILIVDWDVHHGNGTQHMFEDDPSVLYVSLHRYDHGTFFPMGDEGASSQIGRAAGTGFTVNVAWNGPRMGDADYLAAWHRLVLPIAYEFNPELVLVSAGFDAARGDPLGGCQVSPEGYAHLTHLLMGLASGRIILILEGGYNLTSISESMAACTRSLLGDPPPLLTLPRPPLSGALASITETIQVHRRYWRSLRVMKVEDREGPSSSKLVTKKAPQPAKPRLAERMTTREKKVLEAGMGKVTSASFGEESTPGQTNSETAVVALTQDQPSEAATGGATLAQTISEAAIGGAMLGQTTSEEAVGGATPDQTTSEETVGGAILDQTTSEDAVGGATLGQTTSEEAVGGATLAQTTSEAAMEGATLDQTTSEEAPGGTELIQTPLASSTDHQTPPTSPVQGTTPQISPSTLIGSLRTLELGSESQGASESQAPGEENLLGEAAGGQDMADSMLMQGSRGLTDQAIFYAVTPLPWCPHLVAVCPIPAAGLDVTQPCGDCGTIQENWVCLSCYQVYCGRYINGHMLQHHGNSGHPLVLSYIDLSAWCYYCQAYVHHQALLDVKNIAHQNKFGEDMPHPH
# Assay: HDAC6 enzyme inhibitory activity (HDAC-Glo I/II Assay kit)
# Type: biochemical
# Settings: 10 μM; wells without enzyme = 100% inhibition
# Summary of the method: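 Inhibition is calculated as relative activity, taking luminescence in enzyme-free wells as complete inhibition. The enzyme, full-length and GST-purified after Sf-9 expression, was exposed to compound for 60 min at room temperature before a 20 min HDAC-Glo reaction.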
row,SMILES,HDAC6 inhibitory rate (%) (10 μM)
1,"Cc1ccc(C2CC(F)(F)CCN2N2Cc3ccc(-c4nnc(C(F)F)o4)cc3C2=O)nc1 (stereo not drawn) [Example 615, 6-(5-(difluoromethyl)-1,3,4-oxadiazol-2-yl)-2-(4,4-difluoro-2-(5-methylpyridin-2-yl)piperidin-1-yl)isoindolin-1-one (optical isomer)]",99
2,"O=C1c2cc(-c3nnc(C(F)F)o3)cnc2CN1[C@@H]1COCC[C@H]1Oc1ccc(F)cc1 [Example 633, 1,5-anhydro-2,4-dideoxy-2-(3-(5-(difluoromethyl)-1,3,4-oxadiazol-2-yl)-5-oxo-5,7-dihydro-6H-pyrrolo[3,4-b]pyridin-6-yl)-3-O-(4-fluorophenyl)-threo-pentitol (Optical Isomer)]",100

# Same assay, conditions: 10 μM; wells without enzyme = 100% inhibition; read-out: HDAC6 inhibitory rate (%) (10 μM)
row,SMILES,inhibition at 10 µM [%]
1,"O=C(N[C@@H]1[C@H](N2Cc3ccc(-c4nnc(C(F)F)o4)cc3C2=O)CCCC1(F)F)OCc1ccccc1 [Example 619, benzyl ((1R,6R)-6-(6-(5-(difluoromethyl)-1,3,4-oxadiazol-2-yl)-1-oxo-1,3-dihydro-2H-isoindol-2-yl)-2,2-difluorocyclohexyl)carbamate]",100
2,"O=C1c2cc(-c3nnc(C(F)F)o3)ccc2CN1[C@@H]1CCCC(F)(F)[C@@H]1NC(=O)C(F)(F)C(F)(F)F [Example 625, N-((1R,6R)-6-(6-(5-(difluoromethyl)-1,3,4-oxadiazol-2-yl)-1-oxo-1,3-dihydro-2H-isoindol-2-yl)-2,2-difluorocyclohexyl)-2,2,3,3,3-pentafluoropropanamide]",101
3,"CC(F)(F)C(=O)N[C@@H]1[C@H](N2Cc3ccc(-c4nnc(C(F)F)o4)cc3C2=O)CCCC1(F)F [Example 626, N-((1R,6R)-6-(6-(5-(difluoromethyl)-1,3,4-oxadiazol-2-yl)-1-oxo-1,3-dihydro-2H-isoindol-2-yl)-2,2-difluorocyclohexyl)-2,2-difluoropropanamide]",100
4,"O=C1c2cc(-c3nnc(C(F)F)o3)ccc2CN1[C@@H]1CCCC(F)(F)[C@@H]1NC(=O)C(F)(F)C(F)F [Example 628, N-((1R,6R)-6-(6-(5-(difluoromethyl)-1,3,4-oxadiazol-2-yl)-1-oxo-1,3-dihydro-2H-isoindol-2-yl)-2,2-difluorocyclohexyl)-2,2,3,3-tetrafluoropropanamide]",100
5,"Cn1cc(C(C)(C)O)c(N2Cc3ccc(-c4nnc(C(F)F)o4)cc3C2=O)n1 [Example 631, 6-(5-(difluoromethyl)-1,3,4-oxadiazol-2-yl)-2-(4-(2-hydroxypropan-2-yl)-1-methyl-1H-pyraozl-3-yl)isoindolin-1-one]",99
6,"CC(C)(C)OC(=O)N[C@@H]1CCC(F)(F)C[C@H]1N1Cc2ccc(-c3nnc(C(F)F)o3)cc2C1=O [Example 634, tert-butyl ((1R,2R)-2-(6-(5-(difluoromethyl)-1,3,4-oxadiazol-2-yl)-1-oxo-1,3-dihydro-2H-isoindol-2-yl)-4,4-difluorocyclohexyl)carbamate]",99
7,"O=C1c2cc(-c3nnc(C(F)F)o3)ccc2CN1[C@@H]1CC(F)(F)CC[C@H]1NC(=O)C(F)(F)C(F)(F)F [Example 635, N-((1R,2R)-2-(6-(5-(difluoromethyl)-1,3,4-oxadiazol-2-yl)-1-oxo-1,3-dihydro-2H-isoindol-2-yl)-4,4-difluorocyclohexyl)-2,2,3,3,3-pentafluoropropanamide]",99
8,"O=C1c2cc(-c3nnc(C(F)F)o3)ccc2CN1[C@@H]1CC(F)(F)CC[C@H]1NC(=O)C(F)(F)C(F)F [Example 636, N-((1R,2R)-2-(6-(5-(difluoromethyl)-1,3,4-oxadiazol-2-yl)-1-oxo-1,3-dihydro-2H-isoindol-2-yl)-4,4-difluorocyclohexyl)-2,2,3,3-tetrafluoropropanamide]",100
9,"CC(F)(F)C(=O)N[C@@H]1CCC(F)(F)C[C@H]1N1Cc2ccc(-c3nnc(C(F)F)o3)cc2C1=O [Example 637, N-((1R,2R)-2-(6-(5-(difluoromethyl)-1,3,4-oxadiazol-2-yl)-1-oxo-1,3-dihydro-2H-isoindol-2-yl)-4,4-difluorocyclohexyl)-2,2-difluoropropanamide]",100
10,"N[C@@H]1CCC(F)(F)C[C@H]1N1Cc2ncc(-c3nnc(C(F)F)o3)cc2C1=O [Example 638, 6-((1R,2R)-2-amino-5,5-difluorocyclohexyl)-3-(5-(difluoromethyl)-1,3,4-oxadiazol-2-yl)-6,7-dihydro-5H-pyrrollo[3,4-b]pyridin-5-one]",93
11,"CC(F)(F)C(=O)N[C@@H]1CC(F)(F)CC[C@H]1N1Cc2ncc(-c3nnc(C(F)F)o3)cc2C1=O [Example 639, N-((1R,2R)-2-(3-(5-(difluoromethyl)-1,3,4-oxadiazol-2-yl)-5-oxo-5,7-dihydro-6H-pyrrolo[3,4-b]pyridin-6-yl)-5,5-difluorocyclohexyl)-2,2-difluoropropanamide]",100

# Next, values leading:
row,inhibition at 10 µM [%],SMILES
1,89,"O=C1c2cc(-c3nnc(C(F)F)o3)ccc2CN1c1cccn2ccnc12 [Example 616, 6-(5-(difluoromethyl)-1,3,4-oxadiazol-2-yl)-2-(imidazo[1,2-a]pyridin-8-yl)isoindolin-1-one]"
2,100,"O=C1c2cc(-c3nnc(C(F)F)o3)ccc2CN1N1CCOCC1c1ccc(F)cc1 (stereo not shown) [Example 617, 6-(5-(difluoromethyl)-1,3,4-oxadiazol-2-yl)-2-(3-(4-fluorophenyl)morpholin-4-yl)isoindolin-1-one]"
3,88,"N[C@@H]1[C@H](N2Cc3ccc(-c4nnc(C(F)F)o4)cc3C2=O)CCCC1(F)F [Example 621, 2-((1R,2R)-2-amino-3,3-difluorocyclohexyl)-6-(5-(difluoromethyl)-1,3,4-oxadiazol-2-yl)isoindolin-1-one]"
4,100,"O=C(NCC(F)(F)C(F)(F)F)C1CC(F)(F)CCN1N1Cc2ccc(-c3nnc(C(F)F)o3)cc2C1=O (stereo not shown) [Example 622, 1-(6-(5-(difluoromethyl)-1,3,4-oxadiazol-2-yl)-1-oxo-1,3-dihydro-2H-isoindol-2-yl)-4,4-difluoro-N-(2,2,3,3,3-pentafluoropropyl)piperidine-2-carboxamide]"
5,100,"O=C(NCC(F)F)C1CC(F)(F)CCN1N1Cc2ccc(-c3nnc(C(F)F)o3)cc2C1=O (stereo not shown) [Example 623, N-(2,2-difluoroethyl)-1-(6-(5-(difluoromethyl)-1,3,4-oxadiazol-2-yl)-1-oxo-1,3-dihydro-2H-isoindol-2-yl)-4,4-difluoropiperidine-2-carboxamide]"
6,100,"COC(=O)N1CCC[C@@H](N2Cc3ccc(-c4nnc(C(F)F)o4)cc3C2=O)[C@H]1c1ccc(F)cc1 [Example 627, methyl (2R,3R)-3-(6-(5-(difluoromethyl)-1,3,4-oxadiazol-2-yl)-1-oxo-1,3-dihydro-2H-isoindol-2-yl)-2-(4-fluorophenyl)piperidine-1-carboxylate]"
7,100,"O=C(N[C@@H]1[C@H](N2Cc3ccc(-c4nnc(C(F)F)o4)cc3C2=O)CCCC1(F)F)C(F)F [Example 629, N-((1R,6R)-6-(6-(5-(difluoromethyl)-1,3,4-oxadiazol-2-yl)-1-oxo-1,3-dihydro-2H-isoindol-2-yl)-2,2-difluorocyclohexyl)-2,2-difluoroacetamide]"
8,100,"Cc1ccc(C2CCCCN2N2Cc3ccc(-c4nnc(C(F)F)o4)cc3C2=O)cn1 (stereo not shown) [Example 630, 6-(5-(difluoromethyl)-1,3,4-oxadiazol-2-yl)-2-(2-(6-methylpyridin-3-yl)piperidin-1-yl)isoindolin-1-one]"
9,99,"O=C1c2cc(-c3nnc(C(F)F)o3)cnc2CN1[C@@H]1COCC[C@H]1Oc1ccc(F)cc1 [Example 632, 1,5-anhydro-2,4-dideoxy-2-(3-(5-(difluoromethyl)-1,3,4-oxadiazol-2-yl)-5-oxo-5,7-dihydro-6H-pyrrolo[3,4-b]pyridin-6-yl)-3-O-(4-fluorophenyl)-threo-pentitol]"
